From patent US20080004271A1, “Inhibitors of TNFalpha, PDE4 and B-RAF, compositions thereof and methods of use therewith” (priority 2006, published 2008)

Key:
V600E mutant B-RAF = target: T1, V600E mutant B-RAF (Homo sapiens, UniProt P15056, V600E); test: V600E Mutant B-RAF 33P Assay; type: biochemical
T1 construct: purchased Upstate
Protocol: Substrate (HIS-MEK1 K97M) is prepared by Celgene Corp. as described above.
Test compound is diluted in 100% DMSO (600 μM). […] Substrate mixture is prepared as 7.5 μM HIS-MEK1 K97M in assay buffer. ATP mixture is prepared as 300 μM ATP, 75 mM MgCl2, 0.05 μCi/μl ^33P ATP in assay buffer.
In a 96 well assay plate (Falcon Polylpropylene well U-bottom), the following are added to each well: 2.5 μl of test compound solution (serial dilutions), 20 μl of substrate mixture and 17.5 μl of enzyme mixture. The plate is incubated for at least 15 minutes. 10 μl of ATP mixture is added and the plate is incubated at room temperature for about 60 minutes. 80 μl of 12.5% TCA is added to each well, and the plate is incubated for at least 20 minutes. The contents of the plate is transferred to a glass fiber filter plate (Millipore) using a Packard Harvester (washing 10× with 1×PBS). 50 μl of Scintillation-20 fluid is added to each well. The plate is read using a Packard TopCount.

A375 cells = test: Alamar Blue Viability Assay; type: cell-based; settings: Homo sapiens, A-375, 72 h, 3 days
Protocol: A375 cells (ATCC # CRL-1619; Passage 4˜15; doubling time is roughly 18 hours) are used. Culture medium is DMEM (high glucose, with L-glutamine)+10% FBS+Pen/Strep. Cells are passed every three days at 1:20.
200 μl of medium only is added into all wells along the edges of a 96-well flat bottom plate and 180 μl of cell suspension (containing 1,000 cells) per well is added into the plate with a Low Evaporation Lid (Costar Cat # 3595). The cells are cultured overnight. Compounds and controls are diluted according to standard compound dilution protocol described below. From 30 mM stock solution, 10 mM, 3 mM, 1 mM, and 0.3 mM solutions in 100% DMSO are prepared using the following serial dilution protocol:
The 30, 10, 3, 1 and 0.3 mM solutions are diluted 1:50 (DMSO:medium) by adding 4 μl of each to 196 μl of culture medium. This yields 600 μM, 200 μM, 60 μM, 20 μM, and 6 μM secondary stock solutions. 4 μl of DMSO are added to 196 μl medium for the DMSO control as well. 20 μl of compound dilutions, including the DMSO control locations (Row G, Columns 2-10 are DMSO control wells), are added in triplicate to the cells in the 96-well plate using a repeat pipettor (see plate layout below). This yields final concentrations of 60 μM, 20 μM, 6 μM, 2 μM, and 0.6 μM containing 0.2% DMSO in each well. The plate is gently tapped to evenly distribute compound within the well. The plate is incubated at 5% CO2 at 37° C. for 3 days.
20 μl of Alamar Blue (Biosource #DAL-1100) is added to each well. The plate is incubated in 5% CO2 incubator for 4 hours. Fluorescence is measured with excitation wavelength at 530 nm and emission wavelength at 590 nm using a Victor 2 multilabel plate reader (Perkin Elmer). Data is saved with plate format as a Text file and entered into ActivityBase (Cell-based SAR; Prolif-Alamar; MTT 5 plates unfixed fit) to calculate the percent of DMSO values for each compound set of triplicate wells and IC50 curves are plotted.

pMEK1/2 in A375 cells = test: A375 pMEK1/2 Meso Scale Assay; type: cell-based; settings: Homo sapiens, A-375, 2 h; A375 pMEK1/2, about two hours incubation
Protocol: On the afternoon of Day 1, cells are plated in a 96-well flat bottom cell culture plate at about 50,000 cells/well in a volume of 100 μl. On the morning of Day 2, serial dilutions of test compound(s) are added to the plate. The plate is incubated for about two hours at 37° C., […]. The plate is blocked about five minutes before the compound incubation step is completed by adding 150 μl/well of MSD (Meso Scale Discovery) blocking solution-A (prepared with 20 ml 1× Tris wash buffer (25 ml of 10× Tris buffer+225 ml deionized water) and 600 mg MSD blocker A) and incubating with vigorous shaking at room temperature for one hour. The plate is washed 4× with 1× Tris wash buffer.
Cells are harvested and lysates prepared by removing medium, washing 1× with ice-cold PBS (calcium and magnesium free), adding 50 μl/well Complete Tris buffer and incubating with shaking at 4° C. for one hour. Lysate samples (25 μl) are added to an MSD Multi-Spot plate and incubated with vigorous shaking at room temperature for two hours. The plate is washed 1× with Tris wash buffer.
25 μl/well of […] detection antibody (Anti-pMEK1/2 antibody; SULFO-TAG labeled, light sensitive) in 3 ml of cold antibody dilution buffer (1 ml blocking solution-A, 1.82 ml 1× Tris wash buffer, 150 μl 2% MSD blocker D-M and 30 μl 10% MSD blocker D-R) is added and the plate is incubated with vigorous shaking at room temperature in the dark for one hour. The plate is washed 1× with Tris wash buffer.
150 μl/well of 1× MSD Read buffer T (with surfactant) is added to the plate and the plate is read using a MSD Sector instrument.

T1 sequence (P15056 whole entry V600E): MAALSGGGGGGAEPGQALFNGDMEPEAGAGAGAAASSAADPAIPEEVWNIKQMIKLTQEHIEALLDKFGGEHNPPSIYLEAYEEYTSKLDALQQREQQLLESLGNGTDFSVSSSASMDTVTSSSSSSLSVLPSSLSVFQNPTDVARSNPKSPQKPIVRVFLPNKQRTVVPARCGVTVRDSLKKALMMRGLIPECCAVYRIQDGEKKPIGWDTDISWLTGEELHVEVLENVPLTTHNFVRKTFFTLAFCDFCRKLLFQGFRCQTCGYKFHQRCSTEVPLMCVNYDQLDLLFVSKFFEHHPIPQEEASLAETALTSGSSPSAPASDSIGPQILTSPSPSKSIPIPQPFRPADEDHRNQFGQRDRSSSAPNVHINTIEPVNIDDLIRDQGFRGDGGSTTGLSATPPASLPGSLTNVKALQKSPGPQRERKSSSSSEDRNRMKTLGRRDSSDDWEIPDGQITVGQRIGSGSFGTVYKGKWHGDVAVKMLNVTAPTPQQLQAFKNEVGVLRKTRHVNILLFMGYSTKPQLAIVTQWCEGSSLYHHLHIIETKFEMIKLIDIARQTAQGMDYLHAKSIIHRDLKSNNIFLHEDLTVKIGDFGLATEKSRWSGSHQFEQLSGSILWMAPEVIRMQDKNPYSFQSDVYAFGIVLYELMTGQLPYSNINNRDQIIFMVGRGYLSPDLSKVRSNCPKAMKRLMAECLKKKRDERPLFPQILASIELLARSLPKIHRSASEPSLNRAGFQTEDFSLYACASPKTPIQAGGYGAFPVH

IC50 (V600E mutant B-RAF) [µM] | IC50 (A375 cells) [µM] | IC50 (pMEK1/2 in A375 cells) [µM] | Compound
0.1 to 10 | 10 to 20 | 30 to 60 | CC(C)Cc1nc(-c2ccc(Cl)c(Cl)c2)c2c(N)c(C(N)=O)sc2n1 [Example 271]
0.1 to 10 | 10 to 20 | 0.1 to 10 | CC(C)[C@H](CO)Nc1nc(-c2ccc(Cl)c(Cl)c2)c2c(N)c(C(N)=O)sc2n1 [Example 273]
0.1 to 10 | 0.1 to 10 | 0.1 to 10 | NC(=O)c1sc2nc(N)nc(-c3cccc(O)c3)c2c1N [Example 185]
0.1 to 10 | – | 10 to 20 | CC(C)c1nc(-c2ccc(Cl)c(Cl)c2)c2c(N)c(C(N)=O)sc2n1 [Example 238]
0.1 to 10 | 20 to 30 | 10 to 20 | NC(=O)c1sc2nc(NCC(O)CO)nc(-c3ccc(Cl)c(Cl)c3)c2c1N (stereo not drawn) [Example 220]
0.1 to 10 | 10 to 20 | 0.1 to 10 | NC(=O)c1sc2ncnc(-c3cccc(NC(=O)Cc4ccccc4)c3)c2c1N [Example 291]
0.1 to 10 | 10 to 20 | 0.1 to 10 | CC[C@H](CO)Nc1nc(-c2ccc(Cl)c(Cl)c2)c2c(N)c(C(N)=O)sc2n1 [Example 208]
0.1 to 10 | 0.1 to 10 | 10 to 20 | CCCNc1nc(-c2ccc(Cl)c(Cl)c2)c2c(N)c(C(N)=O)sc2n1 [Example 217]
0.1 to 10 | 20 to 30 | 20 to 30 | C[C@@H](O)CNc1nc(-c2ccc(Cl)c(Cl)c2)c2c(N)c(C(N)=O)sc2n1 [Example 206]
0.1 to 10 | 20 to 30 | 0.1 to 10 | NC(=O)c1sc2nc(NC3CC3)nc(-c3ccc(Cl)nc3)c2c1N [Example 169]
0.1 to 10 | 0.1 to 10 | 0.1 to 10 | NC(=O)c1sc2ncnc(-c3cccc(NC(=O)Nc4cccc(C(F)(F)F)c4)c3)c2c1N [Example 295]
0.1 to 10 | 0.1 to 10 | 0.1 to 10 | Cc1ccc(-c2nc(NC(C)(C)CO)nc3sc(C(N)=O)c(N)c23)cc1O [Example 274]
– | 30 to 60 | 10 to 20 | C[C@H](CO)Cc1nc(-c2ccc(Cl)c(Cl)c2)c2c(N)c(C(N)=O)sc2n1 [Example 163]
0.1 to 10 | 0.1 to 10 | 0.1 to 10 | NC(=O)c1sc2ncnc(-c3cc(O)cc(Cl)c3)c2c1N [Example 280]
– | 20 to 30 | 10 to 20 | C[C@@H](CO)Cc1nc(-c2ccc(Cl)c(Cl)c2)c2c(N)c(C(N)=O)sc2n1 [Example 164]
0.1 to 10 | 10 to 20 | 0.1 to 10 | NC(=O)c1sc2nc(NC3CC3)nc(-c3ccc(Cl)cc3)c2c1N [Example 5]
0.1 to 10 | 0.1 to 10 | 0.1 to 10 | NC(=O)c1sc2nc(NC3CC3)nc(-c3cc(O)ccc3F)c2c1N [Example 231]
– | 10 to 20 | 0.1 to 10 | C[C@H](CO)Nc1nc(-c2ccc(Cl)c(Cl)c2)c2c(N)c(C(N)=O)sc2n1 [Example 201]
– | 10 to 20 | 0.1 to 10 | C[C@H](CO)Oc1nc(-c2ccc(Cl)c(Cl)c2)c2c(N)c(C(N)=O)sc2n1 [Example 212]
– | 0.1 to 10 | 0.1 to 10 | COc1cncc(-c2nc(NC3CC3)nc3sc(C(N)=O)c(N)c23)c1 [Example 165]
– | > 60 | > 60 | NC(=O)c1sc2ncnc(-c3ccc(Cl)c(Cl)c3)c2c1N [Example 269]
– | 0.1 to 10 | 0.1 to 10 | NC(=O)c1sc2ncnc(-c3cccc(NC(=O)Nc4ccc(C(F)(F)F)cc4)c3)c2c1N [Example 262]
– | 10 to 20 | 0.1 to 10 | CC(C)(CO)Nc1nc(-c2ccc(Cl)c(Cl)c2)c2c(N)c(C(N)=O)sc2n1 [Example 203]
– | 10 to 20 | 0.1 to 10 | C[C@@H](CO)Nc1nc(-c2ccc(Cl)c(Cl)c2)c2c(N)c(C(N)=O)sc2n1 [Example 200]
– | 0.1 to 10 | 0.1 to 10 | CC(C)(CO)Nc1nc(-c2cc(O)cc(Cl)c2)c2c(N)c(C(N)=O)sc2n1 [Example 190]

The remaining lines, values behind:

Compound | IC50 (V600E mutant B-RAF) [µM] | IC50 (A375 cells) [µM] | IC50 (pMEK1/2 in A375 cells) [µM]
COc1ccc(F)c(-c2nc(NC3CC3)nc3sc(C(N)=O)c(N)c23)c1 [Example 230] | 0.1 to 10 | 20 to 30 | 10 to 20
COc1cncc(-c2nc(NC(C)(C)CO)nc3sc(C(N)=O)c(N)c23)c1 [Example 173] | – | 0.1 to 10 | 0.1 to 10
NC(=O)c1sc2nc(NC3CC3)nc(-c3cccc(NC(=O)Nc4ccc(F)cc4)c3)c2c1N [Example 252] | 0.1 to 10 | 0.1 to 10 | 0.1 to 10
NC(=O)c1sc2nc(NC3CC3)nc(-c3cccc(NCCc4ccccc4)c3)c2c1N [Example 247] | 0.1 to 10 | 0.1 to 10 | 0.1 to 10
CCOc1cncc(-c2nc(NC(C)(C)CO)nc3sc(C(N)=O)c(N)c23)c1 [Example 172] | 30 to 60 | > 60 | > 60
C[C@@H](CO)Nc1nc(-c2cccc(NC(=O)Nc3ccc(C(F)(F)F)cc3)c2)c2c(N)c(C(N)=O)sc2n1 [Example 261] | 0.1 to 10 | 10 to 20 | 0.1 to 10
CC(C)(CN)Nc1nc(-c2cccc(NC(=O)Nc3ccc(C(F)(F)F)cc3)c2)c2c(N)c(C(N)=O)sc2n1 [Example 282] | 0.1 to 10 | 10 to 20 | 10 to 20
CC[C@H](CO)Nc1nc(-c2cccc(NC(=O)Nc3ccc(C(F)(F)F)cc3)c2)c2c(N)c(C(N)=O)sc2n1 [Example 258] | 0.1 to 10 | 0.1 to 10 | 0.1 to 10
C[C@H](CO)Nc1nc(-c2cccc(O)c2F)c2c(N)c(C(N)=O)sc2n1 [Example 241] | 0.1 to 10 | 10 to 20 | 0.1 to 10
Cc1ccc(NC(=O)Nc2cccc(-c3nc(NC4CC4)nc4sc(C(N)=O)c(N)c34)c2)cc1 [Example 251] | – | 0.1 to 10 | 0.1 to 10
CC(C)(CO)Nc1nc(-c2cccc(NC(=O)Nc3ccc(C(F)(F)F)cc3)c2)c2c(N)c(C(N)=O)sc2n1 [Example 257] | – | 0.1 to 10 | 0.1 to 10
NC(=O)c1sc2nc(NC3CC3)nc(-c3cccc(NC(=O)Nc4ccc(C(F)(F)F)cc4)c3)c2c1N [Example 250] | – | 0.1 to 10 | 0.1 to 10
C[C@@H](CO)Nc1nc(-c2cccc(O)c2F)c2c(N)c(C(N)=O)sc2n1 [Example 240] | 0.1 to 10 | 20 to 30 | 0.1 to 10
NC(=O)c1sc2nc(NC3CC3)nc(-c3cccc(NC(=O)Nc4ccccc4)c3)c2c1N [Example 248] | – | 10 to 20 | 10 to 20
COc1cncc(-c2nc(N[C@H](C)CO)nc3sc(C(N)=O)c(N)c23)c1 [Example 176] | – | 0.1 to 10 | 0.1 to 10
NC(=O)c1sc2nc(NC3CC3)nc(-c3cccc(O)c3F)c2c1N [Example 232] | – | 0.1 to 10 | 0.1 to 10
